Reference: patent US20200338229A1, “ANTIMICROBIAL ADHESIVE DRESSINGS” (priority 2015, published 2020)
Where two headings read alike, the source gives them in different places.

How the values were obtained:
[1] = in the presence of light; cited from earlier work
[2] = cited from earlier work
[3] = in the silicone adhesive of this invention

Substance: Polyhexamethylene biguanide [PHMB]
- pH range of stability [1]: 4-10 pH
- temperature up to which stable [1]: up to 80 °C
- solubility ([2]; in oils and hydrocarbons and silicone elastomers): not soluble
- solubility ([2]; in water, alcohols and glycols): soluble
- stability to autoclaving ([3]; autoclaving at 121° C.): stable
- stability to curing temperature ([3]; curing temperature of 140° C.): stable
